Data as given in patent US12011444B2, “N-substituted indole derivatives as PGE2 receptor modulators” (Idorsia Pharmaceuticals Ltd, priority 2015, dated 2024).

Assays:
[1] = target: PTRGER4 (EP4) (Homo sapiens (Human), UniProt P35408); experiment: hEP4 b-arrestin assay (PathHunter HEK 293 PTGER4 b-arrestin cells); type: cell-based
Excerpt: (§1) The assay is using the PathHunter™ HEK 293 PTGER2 and PTGER4 b-arrestin cell lines from DiscoverX. The system is based on the Enzyme Fragment Complementation Technology. Two complementing fragments of the b-galactosidase enzyme are expressed within stably transfected cells. The larger portion of b-gal, termed EA for Enzyme Acceptor, is fused to the C-terminus of b-arrestin 2. The smaller fragment, termed ProLink™ tag, is fused to PTGER2 (EP2) or PTRGER4 (EP4) at the C-terminus. Upon activation, b-arrestin is recruited which forces the interaction of ProLink and EA, allowing complementation of the two fragments of b-gal and the formation of a functional enzyme which is capable of hydrolysing the substrate and generating a chemiluminescent signal.
(§2) 5000 cells per well of a 384 well plate (white with white bottom Greiner 781080) are seeded in 20 ul per well of GM. Plate is incubated at 37° C., 5% C02 for 24 hours.
Plate is pre-incubated 15 minutes at 37° C. Then five microliters of PGE2 (final conc. 20 nM) are transferred into the assay plate. Plate is incubated 120 minutes at 37° C.
(§3) Twelve μl of reagent are transferred to the assay plate and incubate for 1 hour at room temperature in the dark. Luminescence counts are read on a BMG Fluostar Optima reader according to manufacturer's instructions. For each compound concentration calculate of the percentage of activity compared to DMSO control value as average±STDEV.

[2] = target: PTGER2 (EP2) (Homo sapiens (Human), UniProt P43116); experiment: hEP2 b-arrestin assay (PathHunter HEK 293 PTGER2 b-arrestin cells); type: cell-based
PTGER2 (EP2), sequence (P43116 whole entry): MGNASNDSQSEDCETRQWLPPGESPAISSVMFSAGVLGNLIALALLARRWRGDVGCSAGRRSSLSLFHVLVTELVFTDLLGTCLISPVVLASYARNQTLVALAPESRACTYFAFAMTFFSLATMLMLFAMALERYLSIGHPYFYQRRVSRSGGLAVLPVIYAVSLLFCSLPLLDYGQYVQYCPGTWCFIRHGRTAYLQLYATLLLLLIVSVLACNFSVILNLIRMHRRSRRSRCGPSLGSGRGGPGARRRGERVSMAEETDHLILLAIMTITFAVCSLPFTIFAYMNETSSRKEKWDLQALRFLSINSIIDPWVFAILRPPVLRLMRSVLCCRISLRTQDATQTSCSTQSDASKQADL
Excerpt: as §1, §2
Plate is pre-incubated 15 minutes at 37° C. Then five microliters of PGE2 (final conc. 5 μM) are transferred into the assay plate. Plate is incubated 120 minutes at 37° C.
as §3, with “average±STDEV. (each concentration is measured in duplicate)” for “average±STDEV.”

[3] = antagonistic activity on hEP4, mean where measured multiple times
[4] = antagonistic activity on hEP2, mean where measured multiple times
[5] = hEP4 b-arrestin assay (values without asterisk)
[6] = hEP2 b-arrestin assay (values without asterisk)

PTRGER4 (EP4), sequence (P35408 whole entry, looked up, the tested form may be a part): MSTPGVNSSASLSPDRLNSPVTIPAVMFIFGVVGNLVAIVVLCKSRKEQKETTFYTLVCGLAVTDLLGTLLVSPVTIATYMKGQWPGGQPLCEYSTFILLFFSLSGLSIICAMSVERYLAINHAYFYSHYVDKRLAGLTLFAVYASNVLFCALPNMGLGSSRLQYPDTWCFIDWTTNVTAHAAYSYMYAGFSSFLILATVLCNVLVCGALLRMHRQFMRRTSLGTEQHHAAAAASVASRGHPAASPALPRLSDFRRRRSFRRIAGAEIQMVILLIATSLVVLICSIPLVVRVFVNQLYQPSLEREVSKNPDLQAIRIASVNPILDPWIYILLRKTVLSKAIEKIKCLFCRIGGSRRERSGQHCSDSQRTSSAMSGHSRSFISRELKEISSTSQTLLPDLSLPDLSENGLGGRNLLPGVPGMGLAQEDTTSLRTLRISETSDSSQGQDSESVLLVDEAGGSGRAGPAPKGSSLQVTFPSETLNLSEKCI

Row | SMILES | IC50 [1, 3] [nM] | IC50 [2, 4] [nM] | IC50 [1, 5] [nM] | IC50 [2, 6] [nM]
1 | COc1cccc2c1cc(C)n2CCNc1cc(-c2cc(C)c(C(=O)O)c(Cl)c2)ncn1 [compound 131, 2-Chloro-4-{6-[2-(4-methoxy-2-methyl-indol-1-yl)-ethylamino]-pyrimidin-4-yl}-6-methyl-benzoic acid] | 402 | 23 | – | –
2 | COc1ccc(F)c2c1cc(C)n2CCNc1cc(-c2cc(C(F)(F)F)c(C(=N)NO)s2)ncn1 [Example 1061, 5-{6-[2-(7-Fluoro-4-methoxy-2-methyl-indol-1-yl)-ethylamino]-pyrimidin-4-yl}-N-hydroxy-3-trifluoromethyl-thiophene-2-carboxamidine] | – | – | 36 | 19
3 | Cc1cc2c(F)ccc(F)c2n1CCNc1cc(-c2ccc(C(=O)O)c(CCC(C)C)c2)ncn1 [compound 367, 4-{6-[2-(4,7-Difluoro-2-methyl-indol-1-yl)-ethylamino]-pyrimidin-4-yl}-2-(3-methyl-butyl)-benzoic acid] | 961 | 14 | – | –
4 | COc1ccc(F)c2c1cc(C)n2CCNc1cc(-c2ccc3ccncc3c2)ncn1 [compound 383] | 147 | 17 | – | –
5 | COc1cc(-c2cc(NCCn3c(C#N)cc4c(OC)ccc(F)c43)ncn2)sc1C1(O)COC1 [Example 826, 7-Fluoro-1-(2-{6-[5-(3-hydroxy-oxetan-3-yl)-4-methoxy-thiophen-2-yl]-pyrimidin-4-ylamino}-ethyl)-4-methoxy-1H-indole-2-carbonitrile] | – | – | 8 | 13
6 | CCOc1cc(-c2cc(NCCn3c(C#N)cc4c(OC)ccc(F)c43)ncn2)sc1CCC(=O)O [Example 932, 3-(5-{6-[2-(2-Cyano-7-fluoro-4-methoxy-indol-1-yl)-ethylamino]-pyrimidin-4-yl}-3-ethoxy-thiophen-2-yl)-propionic acid] | – | – | 3 | 14
7 | COc1cccc2c1cc(C)n2CCNc1cc(-c2ccc3nc(C)oc3c2)ncn1 [compound 60] | 290 | 85 | – | –
8 | CCOc1cc(-c2cc(NCCn3c(C)cc4c(OC)ccc(F)c43)ncn2)ccc1NCC(=O)OC [Example 1042, (2-Ethoxy-4-{6-[2-(7-fluoro-4-methoxy-2-methyl-indol-1-yl)-ethylamino]-pyrimidin-4-yl}-phenylamino)-acetic acid methyl ester] | – | – | 57 | 11
9 | COc1cccc2c1cc(C)n2CCNc1cc(-c2ccc(CN)c(F)c2)ncn1 [compound 24] | 895 | 94 | – | –
10 | COc1ccc(F)c2c1cc(C)n2CCNc1cc(-c2cc(-c3ccccn3)c(C(=O)O)s2)ncn1 [Example 1066, 5-{6-[2-(7-Fluoro-4-methoxy-2-methyl-indol-1-yl)-ethylamino]-pyrimidin-4-yl}-3-pyridin-2-yl-thiophene-2-carboxylic acid] | – | – | 48 | 3
11 | CCOc1cc(-c2cc(NCCn3c(C)cc4c(OC)ccc(F)c43)ncn2)sc1-c1noc(=O)[nH]1 [Example 1054, 3-(3-Ethoxy-5-{6-[2-(7-fluoro-4-methoxy-2-methyl-indol-1-yl)-ethylamino]-pyrimidin-4-yl}-thiophen-2-yl)-[1,2,4]oxadiazol-5(4H)-one] | – | – | 1 | 1
12 | COc1cc(F)cc2c1cc(C)n2CCNc1cc(-c2ccc(-c3nc(C)no3)cc2)ncn1 [compound 301] | 358 | 103 | – | –
13 | COc1ccc(F)c2c1cc(C)n2CCNc1cc(-c2ccc3c(c2)CCO3)ncn1 [compound 325] | 968 | 159 | – | –
14 | Cc1sc(N)nc1-c1ccc(-c2cc(NCCn3c(C)cc4c(C)ccc(F)c43)ncn2)cc1 [compound 298, {6-[4-(2-Amino-5-methyl-thiazol-4-yl)-phenyl]-pyrimidin-4-yl}-[2-(7-fluoro-2,4-dimethyl-indol-1-yl)-ethyl]-amine] | 249 | 19 | – | –
15 | CCc1cc(-c2cc(NCCn3c(C)cc4c(OC)ccc(Cl)c43)ncn2)ccc1C(=O)O [compound 288] | 714 | 19 | – | –
16 | CCNc1cc(-c2cc(NCCn3c(C)cc4cc(F)cc(F)c43)ncn2)ccc1C(=O)O [compound 167, 4-{6-[2-(5,7-Difluoro-2-methyl-indol-1-yl)-ethylamino]-pyrimidin-4-yl}-2-ethylamino-benzoic acid] | 333 | 6 | – | –
